{
  "source": "ChEMBL document CHEMBL1201862",
  "about": "“PubChem BioAssay data set” (2004)",
  "key": {"[1]": {"assay": "cytotoxicity in HPDE-C7 cells, cell-based, fluorescence, HTS (AID 430)", "format": "functional", "conditions": "Homo sapiens"}, "[2]": {"biological_target": "T1, Short transient receptor potential channel 4 (Mus musculus, UniProt Q9QUQ5)", "T1 sequence (Q9QUQ5 whole entry)": "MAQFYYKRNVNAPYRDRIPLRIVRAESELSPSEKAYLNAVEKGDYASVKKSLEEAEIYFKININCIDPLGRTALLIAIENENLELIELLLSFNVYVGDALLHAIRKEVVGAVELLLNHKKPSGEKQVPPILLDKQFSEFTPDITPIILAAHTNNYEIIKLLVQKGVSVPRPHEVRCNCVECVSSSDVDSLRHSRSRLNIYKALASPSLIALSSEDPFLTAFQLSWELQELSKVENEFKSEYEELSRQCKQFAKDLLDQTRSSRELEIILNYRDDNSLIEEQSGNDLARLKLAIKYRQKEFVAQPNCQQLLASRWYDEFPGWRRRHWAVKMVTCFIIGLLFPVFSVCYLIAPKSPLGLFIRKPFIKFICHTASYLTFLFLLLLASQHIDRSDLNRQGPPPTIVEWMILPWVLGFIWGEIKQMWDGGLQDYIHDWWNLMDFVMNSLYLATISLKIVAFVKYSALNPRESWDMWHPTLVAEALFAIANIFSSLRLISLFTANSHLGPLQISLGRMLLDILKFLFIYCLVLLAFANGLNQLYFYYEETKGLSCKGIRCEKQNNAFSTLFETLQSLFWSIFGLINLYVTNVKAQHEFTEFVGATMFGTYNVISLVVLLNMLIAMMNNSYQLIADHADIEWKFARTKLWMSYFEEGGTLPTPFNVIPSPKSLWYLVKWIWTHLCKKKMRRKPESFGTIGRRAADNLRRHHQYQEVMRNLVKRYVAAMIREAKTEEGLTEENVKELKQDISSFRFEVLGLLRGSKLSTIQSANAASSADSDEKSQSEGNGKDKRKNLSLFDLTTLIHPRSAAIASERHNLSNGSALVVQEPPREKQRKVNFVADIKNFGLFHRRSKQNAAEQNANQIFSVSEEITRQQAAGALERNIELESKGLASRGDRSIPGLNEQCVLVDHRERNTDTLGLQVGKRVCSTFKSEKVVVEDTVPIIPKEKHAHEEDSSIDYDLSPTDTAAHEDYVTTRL", "assay": "mouse TRPC4 channel activators, dose response, cell-based, HEK293 TRPC4/mu-opioid, Fluo-4 calcium (AID 434937)", "format": "functional"}, "[3]": {"assay": "cytotoxicity in KRAS-transformed pancreatic duct cells, primary screen, cell-based, fluorescence, HTS (AID 431);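 further: cell line used: HPDE-C7K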", "format": "functional", "conditions": "Homo sapiens"}, "Hexokinase": {"biological_target": "T2, Hexokinase (Trypanosoma brucei, UniProt Q38C41)", "T2 sequence (Q38C41 whole entry)": "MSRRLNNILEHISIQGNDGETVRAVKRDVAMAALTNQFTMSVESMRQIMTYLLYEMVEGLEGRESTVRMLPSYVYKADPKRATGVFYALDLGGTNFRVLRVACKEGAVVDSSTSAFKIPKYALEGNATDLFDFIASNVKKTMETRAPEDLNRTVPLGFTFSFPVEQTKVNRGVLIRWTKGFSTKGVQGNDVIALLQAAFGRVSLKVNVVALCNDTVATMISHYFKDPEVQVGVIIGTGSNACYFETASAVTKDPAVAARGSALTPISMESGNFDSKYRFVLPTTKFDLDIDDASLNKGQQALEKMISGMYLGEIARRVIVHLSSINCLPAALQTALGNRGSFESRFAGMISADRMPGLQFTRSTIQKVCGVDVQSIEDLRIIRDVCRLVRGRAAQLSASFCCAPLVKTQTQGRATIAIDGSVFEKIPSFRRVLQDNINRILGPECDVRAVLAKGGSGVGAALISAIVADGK", "assay": "Confirmation assay for inhibitors of Trypanosoma brucei hexokinase 1-Analogue-first series. [Related pubchem assays (depositor defined):AID1430, AID1632, AID2516, AID2560, AID2579, AID2600, AID449725, AID492951]", "format": "functional"}, "[4]": {"assay": "inhibitors of SNCA 5'UTR-driven reporter translation, confirmation, H4 neuroglioma cells, luminescence (AID 1988)", "format": "functional, cell-based"}, "Jurkat": {"system": "Jurkat", "assay": "antigen receptor-induced NF-kB inhibitors, dose response, Jurkat, luciferase reporter, luminescence, B- and T-cell (AID 489004);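 further: NF-kB luciferase reporter Jurkat cells stimulated with PMA plus ionomycin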", "format": "functional, cell-based", "conditions": "Homo sapiens"}, "[5]": {"assay": "Luminescence Cell-Based Dose Response HTS to Identify Inhibitors of 5'UTR Stem-Loop Driven Prion Protein mRNA Translation in H4 Neuroglioblastoma Cells. [Related pubchem assays: 1827 (Project Summary), 1813 (Primary HTS)]", "format": "functional"}, "[6]": {"assay": "Luminescence Cell-Based Dose Retest to Confirm Inhibitors of Cancer Stem Cells. [Related pubchem assays (depositor defined):AID2717, AID2721]", "format": "functional", "conditions": "Homo sapiens"}, "[7]": {"assay": "miR-122 activators in hepatoma reporter cells, dose response, cell-based, Huh7 psiCHECK-miR122, Renilla luciferase, cherry-picked (AID 651956);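 further: huh7 hepatoma cells stably carrying a psiCHECK-2 miR-122 sensor plasmid; renilla luciferase signal reporting endogenous miR-122 activity after 48 h compound exposure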", "format": "functional"}, "[8]": {"assay": "HEK293T cytotoxicity, dose response, cytotoxicity control for miR-122 modulator project, cell-based, inhibitor set, cherry-pick, set 2 (AID 720697)", "format": "functional"}, "[9]": {"assay": "cytotoxicity in HEK-293T NF-kB-Luc cells, dose response, cytotoxicity control for B/T-cell NF-kB inhibitor project, cell-based, uHTS hits (AID 489019);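 further: IC50 reflects cytotoxicity as loss of cell viability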", "format": "functional"}},
  "note": "Active and inactive are the calls of the source.",
  "data": [
    {"smiles": "CCCCN(CC)CCCNC(=O)Cn1nc(Cc2ccncc2)c2ccccc2c1=O", "values": [
      {"measurement": "EC50", "setting": "[1]", "value": "> 20 µM (not active)"},
      {"measurement": "EC50", "setting": "[2]", "value": "0.168 µM (active)"},
      {"measurement": "EC50", "setting": "[3]", "value": "> 20 µM (not active)"}
    ]},
    {"smiles": "O=C(Cn1sc2ccccc2c1=O)Nc1ccccc1F", "values": [
      {"measurement": "IC50", "setting": "Hexokinase", "value": "5.8 µM (active)"}
    ]},
    {"smiles": "COc1ccc(C(=O)Nc2cc(Cl)c(Br)cc2C(=O)O)cc1", "values": [
      {"measurement": "IC50", "setting": "Hexokinase", "value": "4.59 µM (active)"}
    ]},
    {"smiles": "COc1cc(C(=O)Nc2cc(Cl)ccc2C(=O)O)cc(OC)c1OC", "values": [
      {"measurement": "IC50", "setting": "Hexokinase", "value": "> 25 µM (inactive)"}
    ]},
    {"smiles": "Nc1nc(Cl)nc2c1ncn2[C@H]1C[C@H](O)[C@@H](CO)O1", "note": "[CLADRIBINE]", "values": [
      {"measurement": "EC50", "setting": "[4]", "value": "2.96 µM (active)"},
      {"measurement": "IC50", "setting": "Jurkat", "value": "0.66 µM (active)"},
      {"measurement": "EC50", "setting": "[5]", "value": "4.8 µM (active)"},
      {"measurement": "AC50", "setting": "[6]", "value": "0.24 µM (active)"},
      {"measurement": "AC50", "setting": "[7]", "value": "50.9 µM (active)"},
      {"measurement": "AC50", "setting": "[8]", "value": "9.07 µM (active)"},
      {"measurement": "IC50", "setting": "[9]", "value": "> 80 µM (inactive)"}
    ]}
  ]
}
